{"source": "patent US10688099B2", "about": "“Methods for modulating the amount of RNA transcripts” (PTC Therapeutics, Inc., priority 2013, dated 2020)", "tested_on": "RNA isoforms in PNN 1-46 SMA type I patient-derived fibroblasts", "experiment": "RNA Abundance Modulation (RNA isoform abundance, iFPM, HiSeq RNA sequencing)", "assay_type": "cell-based, human", "conditions": "for RNA abundance modulation (effect on isoform fold increase): 24 hrs, PNN 1-46 fibroblasts", "experimental": "Cells from a cell line of interest are cultured in conditions sufficient to yield the number of cells capable of generating enough RNA for subsequent sequencing steps. Cells from the tested cell line are contacted with a compound described herein.\nTo culture said cells, they are seeded, at appropriate concentrations in a volume of media in a cell culture container and incubated for 4, 5, 6, 7, 8, 9, 10, or more hours. A concentrated solution of compound in a vehicle (e.g., DMSO) is then added in sufficient volume to result in the intended final concentration of the compound, for example 100 nM, 500 nM, 1 μM, 5 μM, 10 μM, 15 μM, 20 μM, or more. The cells may also be treated with vehicle alone, as a control. A number of replicates of each concentration or control may be made (e.g., 2 replicates). The cells are then incubated at a constant temperature appropriate for cell culture of the particular cell line (e.g., 37° C.) for 6, 12, 18, 24, 48, or more hours. After incubation, the growth medium is removed and the cells are washed with the appropriate buffer (e.g., PBS). Cells are then removed from adherence to the cell culture container by treatment with a solution containing trypsin, and the trypsin subsequently quenched with the appropriate volume of buffer (e.g., DMEM-FBS). The cells are then pelleted with gentle centrifugation (e.g., ≤90×g centrifugal force) and resuspended in a buffer to lyse the cells for extraction of RNA. The cell lysates may then be frozen (e.g., at −80° C.) or, alternately, may immediately be used in a procedure to purify the RNA (e.g. by use of the RNEASY PLUS® minikit). The RNA from cell lysates is eluted in the appropriate volume of buffer (e.g., RNEASE-FREE H2O®). The resulting purified RNA may then be sequenced (e.g., using RNASeq) or analyzed using a human exon array (e.g., by GENECHIP® human exon array) to determine changes in the RNA levels in those cells treated with compound compared to those cells treated only with DMSO. The purified RNA may also be quantified by other methods known in the art.\nUsing the RNA data obtained from sequencing, exon array, or other methods, a statistical analysis can reveal changes in the RNA levels of compound-treated compared with control. For example, t-test p-values may be calculated for the data obtained through sequencing and exon array methods in order to compare compound-treated cells to those treated with the DMSO control. […] Analysis of the sequencing and exon array data may then also yield predictions about the cause of the aberrant amount of an RNA transcript in the cells (e.g., perturbation of RNA splicing, RNA transcription, or RNA stability). These predictions may be further confirmed by methods known in the art. For example, RT-PCR and RT-qPCR may be used to confirm the change in amount of RNA transcripts for one or more particular transcripts of interest.\nFollowing the methods described above in Example 1, PNN 1-46 SMA type I patient-derived fibroblasts were treated with 300 nM or 3 μM Compounds 774 and 808 in 0.5% DMSO.\n700,000 cells were seeded in 10 mL of medium (DMEM plus 10% FBS) in a T-75 flask. Cells were allowed to attach for at least 4 hrs, after which 50 μL of a 200× compound solution (100% DMSO) was added to each well, and the plate was incubated at 37° C. for 24 hrs.\nAt the end of the incubation period, the supernatant was removed and the cells where washed with PBS. TrypLE (Invitrogen) express solution was added (e.g. 1.5 mL per one T75 flask). The flasks were incubated for 3 to 5 min at 37° C. The trypsin was then quenched, e.g., by adding 10 mL DMEM-FBS.\nNext, the cells were pelleted using gentle centrifugation without exceeding 90×g centrifugal force. The supernatant was removed and the cell pellet was re-suspended in 600 μL RLT buffer (the RLT buffer was supplemented with beta-mercaptoethanol according to the RNeasy protocol manual) by pipetting up and down until the pellet was completely dissolved […]"}
{"smiles": "CCc1nc(C)cn2nc(-c3cc(=O)n4cc(C5CCN(C)CC5)cc(C)c4n3)cc12", "note": "[Compound 774]", "values": [{"measurement": "RNA abundance modulation (effect on isoform fold increase)", "setting": "0.3 μM", "value": "modulates RNA abundance"}, {"measurement": "RNA abundance modulation (effect on isoform fold increase)", "setting": "3 μM", "value": "modulates RNA abundance"}, {"measurement": "FC (x + 1)", "setting": "TACC1 NM_006283, 3 μM", "value": 1.1645}, {"measurement": "L2FC (x + 1)", "setting": "TACC1 NM_006283, 3 μM", "value": 0.220}, {"measurement": "L2abs (Cpd-DMSO)", "setting": "TACC1 NM_006283, 3 μM", "value": 8.47}, {"measurement": "abs (Cpd-DMSO)", "setting": "TACC1 NM_006283, 3 μM", "value": 354, "unit": "iFPM"}, {"measurement": "amp FC (x + 1)", "setting": "TACC1 NM_006283, 3 μM", "value": 1.16}, {"measurement": "ave Cpd", "setting": "TACC1 NM_006283, 3 μM", "value": 2506, "unit": "iFPM"}, {"measurement": "FC (x + 1)", "setting": "TAF2 NM_003184, 3 μM", "value": 0.4533}, {"measurement": "L2FC (x + 1)", "setting": "TAF2 NM_003184, 3 μM", "value": "−1.141"}, {"measurement": "L2abs (Cpd-DMSO)", "setting": "TAF2 NM_003184, 3 μM", "value": 9.75}, {"measurement": "abs (Cpd-DMSO)", "setting": "TAF2 NM_003184, 3 μM", "value": 862, "unit": "iFPM"}, {"measurement": "amp FC (x + 1)", "setting": "TAF2 NM_003184, 3 μM", "value": 2.21}, {"measurement": "ave Cpd", "setting": "TAF2 NM_003184, 3 μM", "value": 714, "unit": "iFPM"}, {"measurement": "FC (x + 1)", "setting": "TANC2 AJ278120, 3 μM", "value": 1.0181}, {"measurement": "L2FC (x + 1)", "setting": "TANC2 AJ278120, 3 μM", "value": 0.026}, {"measurement": "L2abs (Cpd-DMSO)", "setting": "TANC2 AJ278120, 3 μM", "value": 1.28}, {"measurement": "abs (Cpd-DMSO)", "setting": "TANC2 AJ278120, 3 μM", "value": 2, "unit": "iFPM"}, {"measurement": "amp FC (x + 1)", "setting": "TANC2 AJ278120, 3 μM", "value": 1.02}, {"measurement": "ave Cpd", "setting": "TANC2 AJ278120, 3 μM", "value": 136, "unit": "iFPM"}, {"measurement": "FC (x + 1)", "setting": "TANC2 AK001077, 3 μM", "value": 4.5130}, {"measurement": "L2FC (x + 1)", "setting": "TANC2 AK001077, 3 μM", "value": 2.174}, {"measurement": "L2abs (Cpd-DMSO)", "setting": "TANC2 AK001077, 3 μM", "value": 1.81}, {"measurement": "abs (Cpd-DMSO)", "setting": "TANC2 AK001077, 3 μM", "value": 4, "unit": "iFPM"}, {"measurement": "amp FC (x + 1)", "setting": "TANC2 AK001077, 3 μM", "value": 4.51}, {"measurement": "ave Cpd", "setting": "TANC2 AK001077, 3 μM", "value": 4, "unit": "iFPM"}, {"measurement": "FC (x + 1)", "setting": "TANC2 AK021886, 3 μM", "value": 0.4015}, {"measurement": "L2FC (x + 1)", "setting": "TANC2 AK021886, 3 μM", "value": "−1.317"}, {"measurement": "L2abs (Cpd-DMSO)", "setting": "TANC2 AK021886, 3 μM", "value": 2.40}, {"measurement": "abs (Cpd-DMSO)", "setting": "TANC2 AK021886, 3 μM", "value": 5, "unit": "iFPM"}, {"measurement": "amp FC (x + 1)", "setting": "TANC2 AK021886, 3 μM", "value": 2.49}, {"measurement": "ave Cpd", "setting": "TANC2 AK021886, 3 μM", "value": 3, "unit": "iFPM"}, {"measurement": "FC (x + 1)", "setting": "TANC2 BC144357, 3 μM", "value": 0.3363}, {"measurement": "L2FC (x + 1)", "setting": "TANC2 BC144357, 3 μM", "value": "−1.572"}, {"measurement": "L2abs (Cpd-DMSO)", "setting": "TANC2 BC144357, 3 μM", "value": 8.29}, {"measurement": "abs (Cpd-DMSO)", "setting": "TANC2 BC144357, 3 μM", "value": 313, "unit": "iFPM"}, {"measurement": "amp FC (x + 1)", "setting": "TANC2 BC144357, 3 μM", "value": 2.97}, {"measurement": "ave Cpd", "setting": "TANC2 BC144357, 3 μM", "value": 158, "unit": "iFPM"}, {"measurement": "FC (x + 1)", "setting": "TANC2 NM_025185, 3 μM", "value": 1.0124}, {"measurement": "L2FC (x + 1)", "setting": "TANC2 NM_025185, 3 μM", "value": 0.018}, {"measurement": "L2abs (Cpd-DMSO)", "setting": "TANC2 NM_025185, 3 μM", "value": 4.47}, {"measurement": "abs (Cpd-DMSO)", "setting": "TANC2 NM_025185, 3 μM", "value": 22, "unit": "iFPM"}, {"measurement": "amp FC (x + 1)", "setting": "TANC2 NM_025185, 3 μM", "value": 1.01}, {"measurement": "ave Cpd", "setting": "TANC2 NM_025185, 3 μM", "value": 1812, "unit": "iFPM"}, {"measurement": "FC (x + 1)", "setting": "TARBP1 NM_005646, 3 μM", "value": 0.1192}, {"measurement": "L2FC (x + 1)", "setting": "TARBP1 NM_005646, 3 μM", "value": "−3.068"}, {"measurement": "L2abs (Cpd-DMSO)", "setting": "TARBP1 NM_005646, 3 μM", "value": 8.52}, {"measurement": "abs (Cpd-DMSO)", "setting": "TARBP1 NM_005646, 3 μM", "value": 367, "unit": "iFPM"}, {"measurement": "amp FC (x + 1)", "setting": "TARBP1 NM_005646, 3 μM", "value": 8.39}, {"measurement": "ave Cpd", "setting": "TARBP1 NM_005646, 3 μM", "value": 49, "unit": "iFPM"}, {"measurement": "FC (x + 1)", "setting": "TBC1D15 AK307922, 3 μM", "value": 1.0252}, {"measurement": "L2FC (x + 1)", "setting": "TBC1D15 AK307922, 3 μM", "value": 0.036}, {"measurement": "L2abs (Cpd-DMSO)", "setting": "TBC1D15 AK307922, 3 μM", "value": 2.70}, {"measurement": "abs (Cpd-DMSO)", "setting": "TBC1D15 AK307922, 3 μM", "value": 6, "unit": "iFPM"}, {"measurement": "amp FC (x + 1)", "setting": "TBC1D15 AK307922, 3 μM", "value": 1.03}, {"measurement": "ave Cpd", "setting": "TBC1D15 AK307922, 3 μM", "value": 263, "unit": "iFPM"}, {"measurement": "FC (x + 1)", "setting": "TBC1D15 NM_022771, 3 μM", "value": 1.1954}, {"measurement": "L2FC (x + 1)", "setting": "TBC1D15 NM_022771, 3 μM", "value": 0.257}, {"measurement": "L2abs (Cpd-DMSO)", "setting": "TBC1D15 NM_022771, 3 μM", "value": 3.99}, {"measurement": "abs (Cpd-DMSO)", "setting": "TBC1D15 NM_022771, 3 μM", "value": 16, "unit": "iFPM"}, {"measurement": "amp FC (x + 1)", "setting": "TBC1D15 NM_022771, 3 μM", "value": 1.20}, {"measurement": "ave Cpd", "setting": "TBC1D15 NM_022771, 3 μM", "value": 96, "unit": "iFPM"}, {"measurement": "FC (x + 1)", "setting": "TBC1D15 NM_001146213, 3 μM", "value": 1.4119}, {"measurement": "L2FC (x + 1)", "setting": "TBC1D15 NM_001146213, 3 μM", "value": 0.498}, {"measurement": "L2abs (Cpd-DMSO)", "setting": "TBC1D15 NM_001146213, 3 μM", "value": 8.07}, {"measurement": "abs (Cpd-DMSO)", "setting": "TBC1D15 NM_001146213, 3 μM", "value": 270, "unit": "iFPM"}, {"measurement": "amp FC (x + 1)", "setting": "TBC1D15 NM_001146213, 3 μM", "value": 1.41}, {"measurement": "ave Cpd", "setting": "TBC1D15 NM_001146213, 3 μM", "value": 923, "unit": "iFPM"}, {"measurement": "FC (x + 1)", "setting": "TBC1D15 NM_001146214, 3 μM", "value": 1.0153}, {"measurement": "L2FC (x + 1)", "setting": "TBC1D15 NM_001146214, 3 μM", "value": 0.022}, {"measurement": "L2abs (Cpd-DMSO)", "setting": "TBC1D15 NM_001146214, 3 μM", "value": "−0.65"}, {"measurement": "abs (Cpd-DMSO)", "setting": "TBC1D15 NM_001146214, 3 μM", "value": 1, "unit": "iFPM"}, {"measurement": "amp FC (x + 1)", "setting": "TBC1D15 NM_001146214, 3 μM", "value": 1.02}, {"measurement": "ave Cpd", "setting": "TBC1D15 NM_001146214, 3 μM", "value": 41, "unit": "iFPM"}, {"measurement": "FC (x + 1)", "setting": "TBC1D15 NR_027449, 3 μM", "value": 0.1625}]}
